Data on two compounds can be found in patent US20120202794A1 (priority 2011, published 2012).

For data set [1], the system named is HCV Replicon 1b. The data set can be described thus: HCV inhibition assay, HCV replicon 1b (Clone A or ET-lunet cells; RT-PCR or luciferase reporter). It is filed as cell-based. To be noted: Hepatitis C virus, 96 h, HCV replicon 1b; 4 days incubation; read-out: Replicon 1b potency EC90. In outline:
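Clone A (1500/well) or ET-lunet (3000/well) replicon cells treated with serially diluted compounds (0.5% DMSO, no G418) for 4 days at 37 °C. HCV RNA measured by one-step RT-PCR normalized to rRNA (ΔΔCt) or by luciferase luminescence versus DMSO controls; EC50/EC90 by curve fitting.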

For data set [2], the system named is Huh7, HepG2, BxPC3, or CEM cells. In words: Cell cytotoxicity assay (MTS), CC90 as reported in Table 1, cell line not stated. In kind it is cell-based. To be noted: MTS assay; 8 days incubation; cell line not given. In outline: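 Compounds, serially diluted from 100 μM, were incubated 8 days at 37° C with Huh7, HepG2 or BxPC3 (2×10^3 cells/well) or CEM (5×10^3 cells/well). Viability was read by MTS, 2 h, absorbance 490 nm. CC90 (90% inhibition) was taken against untreated cells.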
Background: Formazan colour is commonly taken as a measure of viable cells.

A value given as a limit tells only on which side of the number the result lay.

By EC90 is commonly meant the concentration at which the effect reaches the 90% level. In the case of `CC(C)C[C@H]1CN(C(=O)[C@@H]2C[C@H]2c2ccc(F)cc2F)[C@@H](CC(C)C)C(=O)N1` [Compound 298, (3S,6S)-4-[(1R,2R)-2-(2,4-fluoro-phenyl)-cyclopropanecarbonyl]-3,6-diisobutyl-piperazin-2-one], the concentration for an effect of 90% (EC90) in data set [1] was found to be 230 nM. Moreover, the CC90 in data set [2] is greater than 10000 nM.

In the case of `CC(C)C[C@H]1C(=O)N[C@@H](c2ccccc2)CN1C(=O)[C@@H]1C[C@H]1c1ccc(Cl)cc1` [Compound 301, (3S,6S)-4-((1R,2R)-2-(4-chlorophenyl)cyclopropanecarbonyl)-3-isobutyl-6-phenyl-piperazin-2-one], the EC90 in data set [1] was found to be 170 nM. In addition, in data set [2], the CC90 is greater than 10000 nM.
